Columns and labels:
physchem = type: physicochemical
Protocol: The berberine partition coefficient procedure was used to assess the properties of berberine, which was determined to be an overall hydrophilic molecule. […] The solution was shaken by hand for 30 seconds and allowed to stand for 5 minutes. […] The solution was mixed for one hour using a rotating tube inverter (VWR, 13916-822). A blank sample containing water and octanol (0.7 mL of each) was prepared. […] The sample was monitored using UV/V is at wavelengths 230/600 nm and 280/600 nm. Autosampler temperature was maintained at 24° C. and column was at 30° C. The two layers of the sample were injected by adjusting the injection needle height. 0 mm was used for the water layer and +11 mm was used for the octanol layer. The retention time for berberine elution is 1.4 minutes and peak areas were assigned using the onboard Agilent software based upon absorbance at 230 nm. A HPLC-UV chromatogram was recorded for each layer of the partition according the procedure described above. The area under the peak between 1.2-2.2 minutes in the chromatogram was used as a measure of concentration of berberine. A linear relationship was assumed to exist between absorbance and concentration of berberine at the concentrations evaluated. […] The area-blank (cps) was used directly in the equation below.

[1] = system: male Zucker rat, a model of type-2 diabetes and metabolic disorder; assay: Effect of berberine, metformin and simvastatin on body mass, lipid biomarkers, food and water intake, clinical chemistry (Example 18); type: in vivo, obese male Zucker fa/fa rats; settings: Zucker rats, Days 0 to 28
Protocol: All in vivo animal husbandry, treatment regiments, and sample collections were completed by InterVivo. The study was completed using obese male Zucker fa/fa rats (Charles River) at 10 weeks of age. […] Shaving was performed under anaesthesia one day prior to initiation of test article administration. The area was further shaven, as needed, over the course of the dosing period to ensure accurate drug application and absorption. For dosing procedures, animals were restrained and the transdermal test articles applied in a uniform layer over the entire shaved area. The shaved administration area was cleaned daily with paper towel before the subsequent transdermal dose was administered. Animals receiving test articles via oral gavage were restrained, and a ball-tipped gavage needle (18G) attached to a syringe containing the dosing solution was first inserted into the mouth, and then into the stomach. To determine the appropriate depth of insertion of the needle, the position corresponding to the last rib was measured prior to insertion. […] Group A), oral administration of berberine (180 mg/kg/dose; […] Group C), and oral administration of the vehicle (Group D) (Table 19). […] Group F), or with orally-administered metformin (200 mg/kg/dose; Group G). […] On Day 28, the animals were dosed in the morning only, prior to euthanasia and tissue collection. Animal body weights were performed once weekly from Day −34 to −2 and daily from Day −1 to 28. Rats were weighed, and the scales were operated and maintained, according to standard operating procedures. Food and water consumption measurements were taken over a 24 hour period, once weekly, from Days 0 to 28. Blood was collected via tail nick on Day-1 to determine unfasted blood glucose level for group allocation. Whole blood was collected via the saphenous vein or other appropriate route on Days 0, 7, 14, 21 and 28 immediately prior to test article administration. […] On Day 28, subjects were anaesthetized with isoflurane, and whole blood was collected via cardiac puncture 2.5 hours (+/−5 minutes) following treatment administration on this day. […]

[2] = Solubility testing of berberine and dihydroberberine using various solvents; type: physicochemical
Protocol: Solubility was determined in a step-wise procedure that involved attempting to dissolve the berberine/DHB in the solvents at relatively high concentrations. […] Then the expected solvent was added to the berberine/DHB. The container was sonicated at RT or at 40C for 30 minutes. The following solvents were tested to dissolve the DHB. Dimethyl sulfoxide (Reagent Grade; […] Lot #STB[…]), and Glycerol tributyrate (Sigma T8626; Lot #BCBQ […]). […] The solubility was visually checked and state of solubility was recorded.

[3] = humans; cited from earlier work
[4] = oral route, published; cited from earlier work
[5] = Glycerol tributyrate, sonication 40 C.
[6] = Glycerol tributyrate, sonication RT
[7] = Isopropyl myristate, sonication 40 C.
[8] = Isopropyl myristate, sonication RT
[9] = Isosorbid-dimethyl ether 98%, sonication RT
[10] = Oleyl alcohol, sonication 40 C.

berberine in the lipophilic octanol solvent (physchem): ~3% | logD (physchem): -0.63 | Octanol area (cps) 230 nm (physchem; Partition): 1763 cps | Water area (cps) 230 nm (physchem; Partition): 34696 cps | Octanol area (cps) 230 nm (physchem; Partition minus blank): 807 cps | Water area (cps) 230 nm (physchem; Partition minus blank): 34342 cps | berberine remaining within the water layer (physchem; octanol/water): 97% | Dissolving Capability ([2]; Ethanol, sonication 40 C.): 40 mg/mL | State of Solubility ([2]; Ethanol, sonication 40 C.): Suspension | Dissolving Capability ([2]; Ethanol, sonication RT): 25 mg/mL | State of Solubility ([2]; Ethanol, sonication RT): Suspension | Dissolving Capability [2, 5]: 250 mg/mL | State of Solubility [2, 5]: Suspension | Dissolving Capability [2, 6]: 50 mg/mL | State of Solubility [2, 6]: Suspension | Dissolving Capability [2, 7]: 250 mg/mL | State of Solubility [2, 7]: Suspension | Dissolving Capability [2, 8]: 50 mg/mL | State of Solubility [2, 8]: Suspension | Dissolving Capability ([2]; Isosorbid-dimethyl ether 98%, sonication 40 C.): 250 mg/mL | State of Solubility ([2]; Isosorbid-dimethyl ether 98%, sonication 40 C., at the concentration of the same line): Suspension | Dissolving Capability [2, 9]: 50 mg/mL | State of Solubility [2, 9]: Suspension | Dissolving Capability [2, 10]: 250 mg/mL | State of Solubility [2, 10]: Suspension | Dissolving Capability ([2]; Oleyl alcohol, sonication RT): 50 mg/mL | State of Solubility ([2]; Oleyl alcohol, sonication RT): Suspension | Dissolving Capability ([2]; Water, sonication 40 C.): 50 mg/mL | State of Solubility ([2]; Water, sonication 40 C.): Suspension | Dissolving Capability ([2]; Water, sonication RT): 25 mg/mL | State of Solubility ([2]; Water, sonication RT): Suspension
Structure (SMILES): COc1ccc2cc3[n+](cc2c1OC)CCc1cc2c(cc1-3)OCO2 [berberine, Berberine]
cholesterol and triglyceride blood counts (in words) [1]: reduced cholesterol and triglyceride blood counts | glucose levels (in words) ([1]; non-fasting): largest reduction in glucose levels | bioavailability [3]: below 1% | Tmax [4]: ~15 min | time to almost complete clearance after administration [4]: ≤ 30 min
